Reference: ChEMBL document CHEMBL3507680, “University of Dundee, Gates Library screen for HepG2 cell viability”

Assay: Human HepG2 cell viability assay in 384 well format
Type: toxicity, cell-based
Parameters: dose 125 nL, time 70.5 hour; concentration not given beside the values
Details: HepG2 cells, read-out: Inhibition

**Q.** For `CCn1ccnc1S(=O)(=O)Cc1c(C)cc(C)c(C(C)=O)c1C`, which cytotoxicity at 70.5 h is on record?
**A.** The cytotoxicity at 70.5 h was -6.82%.

**Q.** For `CC(CCc1ccccc1F)C(=O)NS(C)(=O)=O` (stereo unspecified), which cytotoxicity at 70.5 h is on record?
**A.** The cytotoxicity at 70.5 h was -8.18%.

**Q.** Which cytotoxicity at 70.5 h does the source give for `CCn1nc(C)c(CNC(=O)NCC(C)(O)c2ccco2)c1C` (stereo unspecified) here?
**A.** The cytotoxicity at 70.5 h was -1.92%.

**Q.** For `O=C(Nc1cnn(Cc2ccc(Cl)cc2)c1)N[C@@H]1C=C[C@H](CO)C1`, which cytotoxicity at 70.5 h is on record?
**A.** The cytotoxicity at 70.5 h was -7.72%.

**Q.** For `Cc1ccn(-c2ccc(N3CCN(Cc4ccccn4)CC3)nn2)n1`, which cytotoxicity at 70.5 h is on record?
**A.** Its cytotoxicity at 70.5 h is -7.77%.

**Q.** Which cytotoxicity at 70.5 h does the source give for `CC1CN(S(=O)(=O)c2cc(S(C)(=O)=O)ccc2Br)c2cccnc2O1` (stereo unspecified) here?
**A.** Its cytotoxicity at 70.5 h is 1.23%.

**Q.** For `CC(C)c1nc(C2CCCN(C(=O)CS(=O)(=O)C(C)C)C2)no1` (stereo unspecified), which cytotoxicity at 70.5 h is on record?
**A.** The cytotoxicity at 70.5 h was -7.77%.

**Q.** With `CC1CN(c2ncnc3ccccc23)CCO1` (stereo unspecified) as the compound, how does the cytotoxicity at 70.5 h read?
**A.** Its cytotoxicity at 70.5 h is 10%.

**Q.** For `Cc1ccc(CN2CCOC(C)(c3cnn(C)c3)C2)cc1` (stereo unspecified), which cytotoxicity at 70.5 h is on record?
**A.** The cytotoxicity at 70.5 h was -2.83%.

**Q.** For `CCOCCS(=O)(=O)Cc1ccn(-c2cccc(F)c2)n1`, which cytotoxicity at 70.5 h is on record?
**A.** Its cytotoxicity at 70.5 h is -10.1%.

**Q.** For `CCOC(=O)C1CCN(C(=O)CN2CCCC2c2ccsc2)CC1` (stereo unspecified), which cytotoxicity at 70.5 h is on record?
**A.** The cytotoxicity at 70.5 h was -3.85%.

**Q.** Which cytotoxicity at 70.5 h does the source give for `COCCn1cc(C(=O)N2CCCC2c2cc(C)on2)c2ccccc21` (stereo unspecified) here?
**A.** The cytotoxicity at 70.5 h was 1.11%.

**Q.** For `O=C(Nc1ccccc1)C1CCN(C(=O)COc2ccccc2F)CC1`, which cytotoxicity at 70.5 h is on record?
**A.** Its cytotoxicity at 70.5 h is 7.69%.

**Q.** Which cytotoxicity at 70.5 h does the source give for `O=C(NCC(O)c1ccc(F)cc1F)c1cccc(F)c1` (stereo unspecified) here?
**A.** Its cytotoxicity at 70.5 h is -2.46%.

**Q.** With `Cc1nc(NC(=O)C(C)N2CCN(c3ncccn3)CC2)sc1C` (stereo unspecified) as the compound, how does the cytotoxicity at 70.5 h read?
**A.** Its cytotoxicity at 70.5 h is -8.18%.

**Q.** With `O=C(NCCNc1cnccn1)N1CC=C(c2ccccc2)CC1` as the compound, how does the cytotoxicity at 70.5 h read?
**A.** Its cytotoxicity at 70.5 h is -8.49%.

**Q.** With `COc1c(C)cnc(CNC(=O)c2cnc3onc(C)c3c2)c1C` as the compound, how does the cytotoxicity at 70.5 h read?
**A.** Its cytotoxicity at 70.5 h is 12.5%.

**Q.** For `CN(C)CCOc1ccc(CNC(=O)c2cccc3[nH]ncc23)cc1`, which cytotoxicity at 70.5 h is on record?
**A.** Its cytotoxicity at 70.5 h is 9.57%.

**Q.** Which cytotoxicity at 70.5 h does the source give for `Cc1noc(C)c1CCC(=O)N1CCCC(n2ccnc2C)C1` (stereo unspecified) here?
**A.** Its cytotoxicity at 70.5 h is 3.81%.

**Q.** Which cytotoxicity at 70.5 h does the source give for `CC(C)Nc1cccc(C(=O)NCC(O)c2ccc(F)cc2F)c1` (stereo unspecified) here?
**A.** Its cytotoxicity at 70.5 h is -1.19%.

**Q.** With `O=C(NCC1CCN(CCc2ccccc2)C1)c1c(F)cccc1F` (stereo unspecified) as the compound, how does the cytotoxicity at 70.5 h read?
**A.** Its cytotoxicity at 70.5 h is 14.6%.

**Q.** Which cytotoxicity at 70.5 h does the source give for `CC(C)c1nc(C2CCCN(c3nccc(C(F)(F)F)n3)C2)no1` (stereo unspecified) here?
**A.** The cytotoxicity at 70.5 h was -2.52%.

**Q.** With `COC(=O)c1ccc(Cl)c(NS(=O)(=O)c2cn(C)cn2)c1` as the compound, how does the cytotoxicity at 70.5 h read?
**A.** Its cytotoxicity at 70.5 h is 9.09%.

**Q.** For `CC(=O)NCc1ccc(C(=O)N2CCCC(n3cncn3)C2)o1` (stereo unspecified), which cytotoxicity at 70.5 h is on record?
**A.** The cytotoxicity at 70.5 h was 20.5%.

**Q.** With `CCCc1n[nH]c(C2CN(C(=O)CCCn3ccnc3C)CCO2)n1` (stereo unspecified) as the compound, how does the cytotoxicity at 70.5 h read?
**A.** The cytotoxicity at 70.5 h was 4.08%.

**Q.** For `CC(C)c1cnc(CN(C)C2CCN(CCc3ccccn3)C2)o1` (stereo unspecified), which cytotoxicity at 70.5 h is on record?
**A.** Its cytotoxicity at 70.5 h is 13.1%.

**Q.** With `CCNC(=O)CN1CCN(c2ccnc3c(F)ccc(F)c23)CC1` as the compound, how does the cytotoxicity at 70.5 h read?
**A.** Its cytotoxicity at 70.5 h is -7.66%.

**Q.** For `O=C(CN1CCN(c2ccnc3c(F)ccc(F)c23)CC1)NC1CC1`, which cytotoxicity at 70.5 h is on record?
**A.** Its cytotoxicity at 70.5 h is 0.111%.

**Q.** Which cytotoxicity at 70.5 h does the source give for `NC(=O)c1cnc(NC2CCN(c3ccccc3)CC2)c(Cl)c1` here?
**A.** Its cytotoxicity at 70.5 h is -1.28%.

**Q.** Which cytotoxicity at 70.5 h does the source give for `O=C(c1csc(-c2ncccn2)n1)N1CCN(C2CCCC2)CC1` here?
**A.** Its cytotoxicity at 70.5 h is -5.27%.

**Q.** Which cytotoxicity at 70.5 h does the source give for `O=C(c1csc(-c2cccs2)n1)N1CCN2CCCCC2C1` (stereo unspecified) here?
**A.** Its cytotoxicity at 70.5 h is -2.54%.

**Q.** For `COCCOCCC(=O)Nc1c(-c2ccc(F)cc2)ncn1C`, which cytotoxicity at 70.5 h is on record?
**A.** Its cytotoxicity at 70.5 h is 17%.

**Q.** For `COc1ccc(-c2cnc(CN3CCCC3Cn3cncn3)o2)cc1` (stereo unspecified), which cytotoxicity at 70.5 h is on record?
**A.** The cytotoxicity at 70.5 h was -6.4%.

**Q.** Which cytotoxicity at 70.5 h does the source give for `CC(C)CC(=O)Nc1c(-c2ccc(F)cc2)ncn1C` here?
**A.** The cytotoxicity at 70.5 h was 9.48%.

**Q.** Which cytotoxicity at 70.5 h does the source give for `CC(C)OCCC(=O)Nc1c(-c2ccc(F)cc2)ncn1C` here?
**A.** Its cytotoxicity at 70.5 h is 2.71%.

**Q.** With `Cc1[nH]c(=O)sc1S(=O)(=O)N1CCCC1C(=O)NCc1ccsc1` (stereo unspecified) as the compound, how does the cytotoxicity at 70.5 h read?
**A.** The cytotoxicity at 70.5 h was -4.24%.

**Q.** With `COc1ncc(C)cc1NC(=O)COc1ccccc1F` as the compound, how does the cytotoxicity at 70.5 h read?
**A.** The cytotoxicity at 70.5 h was 11.7%.

**Q.** With `COCc1csc(NC(=O)NCc2ccsc2)n1` as the compound, how does the cytotoxicity at 70.5 h read?
**A.** Its cytotoxicity at 70.5 h is -4.84%.

**Q.** For `Cc1nsc(NCCNS(=O)(=O)c2cccc(Cl)c2)n1`, which cytotoxicity at 70.5 h is on record?
**A.** Its cytotoxicity at 70.5 h is 9.23%.

**Q.** Which cytotoxicity at 70.5 h does the source give for `Cc1c(NCC(C)(C)C)cccc1C(=O)NCc1ncnn1C` here?
**A.** The cytotoxicity at 70.5 h was 14.6%.

**Q.** Which cytotoxicity at 70.5 h does the source give for `COc1cccc(OCC(=O)Nc2cc(C)cnc2OC)c1` here?
**A.** Its cytotoxicity at 70.5 h is 2.85%.

**Q.** With `O=C(c1csc(-c2ncccn2)n1)N1CCN2CCCCC2C1` (stereo unspecified) as the compound, how does the cytotoxicity at 70.5 h read?
**A.** The cytotoxicity at 70.5 h was -5.52%.

**Q.** With `CC(CNS(C)(=O)=O)c1ccc(F)c(F)c1` (stereo unspecified) as the compound, how does the cytotoxicity at 70.5 h read?
**A.** The cytotoxicity at 70.5 h was -1.08%.

**Q.** With `CN(CCNc1cc(N2CCCC2CO)ncn1)Cc1ccccc1` (stereo unspecified) as the compound, how does the cytotoxicity at 70.5 h read?
**A.** The cytotoxicity at 70.5 h was -3.62%.

**Q.** For `c1cncc(CN(Cc2ccc(-n3ccnc3)cc2)CC2CCCO2)c1` (stereo unspecified), which cytotoxicity at 70.5 h is on record?
**A.** Its cytotoxicity at 70.5 h is 13.2%.

**Q.** Which cytotoxicity at 70.5 h does the source give for `CS(=O)(=O)NC1CCN(c2cccc(F)c2C#N)CC1` here?
**A.** The cytotoxicity at 70.5 h was -16.5%.
